Where two headings read alike, the source gives them in different places.
Biological target: T1, F508delCFTR (Homo sapiens, UniProt P13569, DEL508-508)
T1 construct: expressed in transfected cells; host or cells: CFBE41o- (human lung derived epithelial cell line), doxycycline-inducible expression
Assay: Cell Surface Expression-Horse Radish Peroxidase (CSE-HRP) assay
Assay type: cell-based
Conditions: CFBE41o-F508delCFTR-HRP cells; for Maximum % activity (with co-corrector): with co-corrector (2 μM); for Maximum % activity (with co-corrector) / Maximum % activity (without co-corrector): normalized to on-plate positive control, highest concentration 20 μM
Summary of the method: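 Surface F508delCFTR-HRP was read by luminol luminescence after 18–24 h compound exposure at 33 °C, without or with 2 μM co-corrector. Doses were eight 3-fold steps from 20 μM, in doxycycline-induced (0.5 μg/mL, 72 h) CFBE41o- cells. % activity was scaled to the on-plate 2 μM positive control minus DMSO; EC50 came from a variable-slope sigmoid fit.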

[1] = test compound without co-corrector, 18-24 hours at 33° C., read-out: EC50 (without co-corrector)
[2] = with co-corrector (2 μM of 3-[(2R,4R)-4-({[1-(2,2-difluoro-1,3-benzodioxol-5-yl)cyclopropyl]carbonyl}amino)-7-methoxy-3,4-dihydro-2H-chromen-2-yl]benzoic acid), read-out: EC50 (with co-corrector)

T1 sequence (P13569 with tags, fused parts or gaps DEL508-508): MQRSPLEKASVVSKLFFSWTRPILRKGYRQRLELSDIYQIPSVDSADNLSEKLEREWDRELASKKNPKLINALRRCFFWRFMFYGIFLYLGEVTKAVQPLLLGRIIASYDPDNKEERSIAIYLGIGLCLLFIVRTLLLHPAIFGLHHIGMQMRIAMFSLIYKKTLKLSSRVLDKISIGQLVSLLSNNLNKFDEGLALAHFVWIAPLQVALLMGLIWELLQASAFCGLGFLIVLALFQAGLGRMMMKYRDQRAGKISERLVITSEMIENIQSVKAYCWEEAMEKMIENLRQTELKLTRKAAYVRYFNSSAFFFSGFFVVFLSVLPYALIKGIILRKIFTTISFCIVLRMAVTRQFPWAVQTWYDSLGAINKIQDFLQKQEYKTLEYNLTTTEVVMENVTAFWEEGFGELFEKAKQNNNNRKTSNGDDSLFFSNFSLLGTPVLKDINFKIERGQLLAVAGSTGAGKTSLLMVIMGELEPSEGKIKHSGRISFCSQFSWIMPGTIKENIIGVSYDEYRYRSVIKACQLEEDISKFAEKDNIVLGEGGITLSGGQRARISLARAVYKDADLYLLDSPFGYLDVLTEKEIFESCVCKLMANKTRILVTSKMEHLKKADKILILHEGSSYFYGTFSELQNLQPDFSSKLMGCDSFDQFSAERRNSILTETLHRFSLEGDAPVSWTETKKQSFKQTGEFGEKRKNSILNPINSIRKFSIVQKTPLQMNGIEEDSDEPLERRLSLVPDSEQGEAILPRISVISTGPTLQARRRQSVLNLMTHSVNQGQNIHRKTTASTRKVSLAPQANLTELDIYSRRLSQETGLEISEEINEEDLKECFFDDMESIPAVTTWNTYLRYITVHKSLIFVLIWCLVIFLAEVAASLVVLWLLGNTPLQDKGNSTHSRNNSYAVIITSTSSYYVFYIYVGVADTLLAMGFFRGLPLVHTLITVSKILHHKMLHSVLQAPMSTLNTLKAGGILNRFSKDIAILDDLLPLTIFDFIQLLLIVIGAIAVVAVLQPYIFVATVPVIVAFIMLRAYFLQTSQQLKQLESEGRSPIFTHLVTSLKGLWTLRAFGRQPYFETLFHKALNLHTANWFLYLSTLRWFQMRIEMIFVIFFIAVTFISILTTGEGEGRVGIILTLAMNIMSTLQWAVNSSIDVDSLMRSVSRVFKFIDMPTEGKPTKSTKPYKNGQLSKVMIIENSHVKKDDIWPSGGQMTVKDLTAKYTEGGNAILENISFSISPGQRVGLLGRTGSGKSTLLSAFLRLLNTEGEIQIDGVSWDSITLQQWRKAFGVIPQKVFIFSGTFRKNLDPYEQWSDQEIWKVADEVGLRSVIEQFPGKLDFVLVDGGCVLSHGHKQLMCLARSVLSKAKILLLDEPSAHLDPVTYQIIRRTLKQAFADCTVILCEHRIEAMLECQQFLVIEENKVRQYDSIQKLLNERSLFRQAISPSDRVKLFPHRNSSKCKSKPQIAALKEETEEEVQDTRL

Row | SMILES | EC50 [1] [µM] | EC50 [2] [µM] | Maximum % activity (with co-corrector) | Maximum % activity (without co-corrector)
1 | COc1cc(OC)nc(OC2[C@@H](c3ccccc3)N(C(=O)N(C(C)C)C(C)C)[C@@H](C(=O)O)[C@@H]2C(C)(C)C)n1 (mixture of isomers) [Example 6, rac-(2R,3S,5R)-3-tert-butyl-4-[(4,6-dimethoxypyrimidin-2-yl)oxy]-1-[di(propan-2-yl)carbamoyl]-5-phenylpyrrolidine-2-carboxylic acid] | 1 to 10 | 1 to 10 | +++ (≥350) | + (<100)
2 | COc1ccc(C(F)(F)F)cc1[C@H](C)CO[C@H]1[C@H](C(C)(C)C)[C@@H](C(=O)O)N(C(=O)[C@@H]2CCCCO2)[C@H]1c1ccccc1C [Example 273, (2S,3R,4S,5S)-3-tert-butyl-4-{(2S)-2-[2-methoxy-5-(trifluoromethyl)phenyl]propoxy}-5-(2-methylphenyl)-1-[(2S)-oxane-2-carbonyl]pyrrolidine-2-carboxylic acid] | < 1 | < 1 | +++ (≥350) | +++ (≥200)
3 | COc1ncc(C2CCC2)cc1CO[C@H]1[C@H](C(C)(C)C)[C@@H](C(=O)O)N(C(=O)[C@@H]2CCCO2)[C@H]1c1ccccc1C1CC1 [Example 149, (2S,3R,4S,5S)-3-tert-butyl-4-[(5-cyclobutyl-2-methoxypyridin-3-yl)methoxy]-5-(2-cyclopropylphenyl)-1-[(2S)-oxolane-2-carbonyl]pyrrolidine-2-carboxylic acid] | 1 to 10 | < 1 | +++ (≥350) | ++ (≥100 and <200)
4 | COc1ncc(C(F)(F)F)cc1CO[C@H]1[C@H](C(C)(C)C)[C@@H](C(=O)O)N(C(=O)[C@@H]2CCCCO2)[C@H]1c1cccc(Cl)c1C [Example 232, (2S,3R,4S,5S)-3-tert-butyl-5-(3-chloro-2-methylphenyl)-4-{[2-methoxy-5-(trifluoromethyl)pyridin-3-yl]methoxy}-1-[(2S)-oxane-2-carbonyl]pyrrolidine-2-carboxylic acid] | 1 to 10 | < 1 | +++ (≥350) | +++ (≥200)
5 | COc1ncc(C(F)(F)F)cc1CO[C@H]1[C@H](C(C)(C)C)[C@@H](C(=O)O)N(C(=O)[C@@H]2CCCO2)[C@H]1c1cccc(Cl)c1 [Example 119, (2S,3R,4S,5S)-3-tert-butyl-5-(3-chlorophenyl)-4-{[2-methoxy-5-(trifluoromethyl)pyridin-3-yl]methoxy}-1-[(2S)-oxolane-2-carbonyl]pyrrolidine-2-carboxylic acid] | 1 to 10 | 1 to 10 | +++ (≥350) | ++ (≥100 and <200)
6 | COc1ncc(C(F)(F)F)cc1CO[C@H]1[C@H](C(C)(C)C)[C@@H](C(=O)O)N(C(=O)[C@@H]2CCCCO2)[C@H]1c1cccc2c1OCC2 [Example 216, (2S,3R,4S,5S)-3-tert-butyl-5-(2,3-dihydro-1-benzofuran-7-yl)-4-{[2-methoxy-5-(trifluoromethyl)pyridin-3-yl]methoxy}-1-[(2S)-oxane-2-carbonyl]pyrrolidine-2-carboxylic acid] | 1 to 10 | < 1 | +++ (≥350) | + (<100)
7 | CC(C)(C)[C@@H]1C(OCc2cc(Cl)ccc2Cl)[C@@H](c2ccccc2)N(C(=O)C2CCCCC2)[C@H]1C(=O)O (mixture of isomers) [Example 4, rac-(2R,3S,5R)-3-tert-butyl-1-(cyclohexanecarbonyl)-4-[(2,5-dichlorophenyl)methoxy]-5-phenylpyrrolidine-2-carboxylic acid] | 1 to 10 | 1 to 10 | +++ (≥350) | ++ (≥100 and <200)
8 | COc1ccc(C(C)(C)C)cc1CO[C@H]1[C@H](C(C)(C)C)[C@@H](C(=O)O)N(C(=O)[C@@H]2CCCCO2)[C@H]1c1cccc2ccccc12 [Example 211, (2S,3R,4S,5S)-3-tert-butyl-4-[(5-tert-butyl-2-methoxyphenyl)methoxy]-5-(naphthalen-1-yl)-1-[(2S)-oxane-2-carbonyl]pyrrolidine-2-carboxylic acid] | 1 to 10 | < 1 | +++ (≥350) | +++ (≥200)
9 | CC(C)Oc1ncccc1[C@H]1[C@@H](OCc2cc3cc(Br)ccc3o2)[C@H](C(C)(C)C)[C@@H](C(=O)O)N1C(=O)[C@@H]1CCCCO1 [Example 289, (2S,3R,4S,5S)-4-[(5-bromo-1-benzofuran-2-yl)methoxy]-3-tert-butyl-1-[(2S)-oxane-2-carbonyl]-5-{2-[(propan-2-yl)oxy]pyridin-3-yl}pyrrolidine-2-carboxylic acid] | 1 to 10 | < 1 | +++ (≥350) | + (<100)
10 | COc1ncc(C(F)(F)F)cc1CO[C@H]1[C@H](C(C)(C)C)[C@@H](C(=O)O)N(C(=O)[C@@H]2CCCCO2)[C@H]1c1ccccc1-c1cccc(OC(F)(F)F)c1 [Example 201, (2S,3R,4S,5S)-3-tert-butyl-4-{[2-methoxy-5-(trifluoromethyl)pyridin-3-yl]methoxy}-1-[(2S)-oxane-2-carbonyl]-5-[3′-(trifluoromethoxy) [1,1′-biphenyl]-2-yl]pyrrolidine-2-carboxylic acid] | 1 to 10 | 1 to 10 | +++ (≥350) | +++ (≥200)

Continued, values first:

Row | EC50 [1] [µM] | EC50 [2] [µM] | Maximum % activity (with co-corrector) | Maximum % activity (without co-corrector) | SMILES
11 | 1 to 10 | 1 to 10 | ++ (≥150 and <350) | + (<100) | COc1cccc(-c2cnc(OC)c(CO[C@H]3[C@H](C(C)(C)C)[C@@H](C(=O)O)N(C(=O)OC(C)C)[C@H]3c3ccccc3)c2)c1 [Example 70, (2S,3R,4S,5S)-3-tert-butyl-4-{[2-methoxy-5-(3-methoxyphenyl)pyridin-3-yl]methoxy}-5-phenyl-1-{[(propan-2-yl)oxy]carbonyl}pyrrolidine-2-carboxylic acid]
12 | < 1 | < 1 | +++ (≥350) | ++ (≥100 and <200) | COc1ncc(C(F)(F)F)cc1CO[C@H]1[C@H](C(C)(C)C)[C@@H](C(=O)O)N(C(=O)OC(C)C)[C@H]1c1ccccc1OC(C)C [Example 105, (2S,3R,4S,5S)-3-tert-butyl-4-{[2-methoxy-5-(trifluoromethyl)pyridin-3-yl]methoxy}-1-{[(propan-2-yl)oxy]carbonyl}-5-{2-[(propan-2-yl)oxy]phenyl}pyrrolidine-2-carboxylic acid]
13 | > 10 | > 10 | + (<150) | + (<100) | COc1ccc(C(F)(F)F)cc1CO[C@H]1[C@H](C(C)(C)C)[C@@H](C(=O)O)N(C(=O)N(C(C)C)C(C)C)[C@H]1c1ccccc1 (single isomer, unassigned) [Example 9, (2S*,3R*,4S*,5S*)-3-tert-butyl-1-[di(propan-2-yl)carbamoyl]-4-{[2-methoxy-5-(trifluoromethyl)phenyl]methoxy}-5-phenylpyrrolidine-2-carboxylic acid]
14 | 1 to 10 | < 1 | +++ (≥350) | +++ (≥200) | COc1ccccc1[C@H]1[C@@H](OCc2cc(C(C)(C)C)cnc2OC)[C@H](C(C)(C)C)[C@@H](C(=O)O)N1C(=O)[C@@H]1CCCCO1 [Example 241, (2S,3R,4S,5S)-3-tert-butyl-4-[(5-tert-butyl-2-methoxypyridin-3-yl)methoxy]-5-(2-methoxyphenyl)-1-[(2S)-oxane-2-carbonyl]pyrrolidine-2-carboxylic acid]
15 | < 1 | < 1 | +++ (≥350) | +++ (≥200) | CCc1ccccc1[C@H]1[C@@H](OCc2cc(C(F)(F)F)cnc2OC)[C@H](C(C)(C)C)[C@@H](C(=O)O)N1C(=O)[C@@H]1CCCCO1 [Example 179, (2S,3R,4S,5S)-3-tert-butyl-5-(2-ethylphenyl)-4-{[2-methoxy-5-(trifluoromethyl)pyridin-3-yl]methoxy}-1-[(2S)-oxane-2-carbonyl]pyrrolidine-2-carboxylic acid]
16 | > 10 | > 10 | + (<150) | + (<100) | COc1ncc(C(F)(F)F)cc1CO[C@@H]1[C@H](C(C)(C)C)[C@@H](C(=O)O)N(C(=O)C2CCCCC2)[C@H]1c1cccnc1OC(C)C [Example 164, (2S,3R,4R,5S)-3-tert-butyl-1-(cyclohexanecarbonyl)-4-{[2-methoxy-5-(trifluoromethyl)pyridin-3-yl]methoxy}-5-{2-[(propan-2-yl)oxy]pyridin-3-yl}pyrrolidine-2-carboxylic acid]
17 | 1 to 10 | < 1 | +++ (≥350) | ++ (≥100 and <200) | COc1ncc(C(F)(F)F)cc1CO[C@H]1[C@H](C(C)(C)C)[C@@H](C(=O)O)N(C(=O)[C@@H]2CCCCO2)[C@H]1c1ccccc1Cl [Example 103, (2S,3R,4S,5S)-3-tert-butyl-5-(2-chlorophenyl)-4-{[2-methoxy-5-(trifluoromethyl)pyridin-3-yl]methoxy}-1-[(2S)-oxane-2-carbonyl]pyrrolidine-2-carboxylic acid]
